Experimental data: patent publication US20030103993A1, “HLA-DR2 binding peptides” (Corixa Corporation, priority 2000, published 2003)

Legend:
[1] = tested on: SS8T cloned human T cells; assay: T cell receptor occupancy assay: γ-IFN production by SS8T T cell clone (ELISA); type: cell-based; conditions: SS8T cells restricted to HLA-DR2 and MBP 84-102; 48 h incubation; text cites FIG. 2
Procedure: The Herpes saimiri virus (HSV) transformed SS8T human T cell clone was a generous gift from Dr. H. Wekerle. The clone is restricted to DR2 (DRB5*0101) and MBP (84-102) peptide. It was cultured in RPMI 1640 medium supplemented with 2 mM L-glutamine, 100 units/ml penicillin, 100 μg/ml streptomycin, 10% fetal bovine serum and 50 units/ml human recombinant IL-2 (rIL-2) at 37° C. (culture medium). Every alternate day, cells were transferred to fresh culture medium. Various peptides at different concentrations were incubated with the cells in a microtiter tissue culture plate at a density of 20,000 cells/200 μl/well in the absence of rIL-2. After 48 h of incubation at 37° C., the culture fluids were collected from each well to test for γ-IFN and TNF-β cytokines. The detection of γ-IFN was by Ab ELISA as described recently (Arimilli et a.l, J. Immunol. Methods 212:49-59 (1998)). For the detection of TNF-β, Nunc Maxisorb 96-well plates were coated with anti-human TNF-β mAb at a concentration of 0.5 μg/well and incubated at 4° C. overnight. The wells were blocked with 0.1% bovine serum albumin, and samples were incubated at RT for 2 h. A standard curve was generated by using recombinant human TNF-β with a dilution range of 500 to 0.01 ng/ml. […] The reaction was stopped by 2N sulfuric acid at 5 mm, and the absorbance was measured at 450 nm.

SS8T cells = assay: T cell metabolic acidification rate (Cytosensor microphysiometer); type: cell-based, human
From the text: Freshly cultured SS8T cells were immobilized into microphysiometer cell capsules as described earlier (Arimilli et al., J. Immunol. Methods 212:49-59 (1998)) using low-melt agarose (Molecular Devices Corp., Sunnyvale, Calif.). Briefly, cells were rested from IL-2 pulsing for 2 days. Cells were counted and suspended in a serum-free loading medium (low-buffering RPMI 1640 containing 10% fatty acid free, endotoxin-free BSA). Cells were collected by centrifugation and resuspended at a concentration of 3×10^5 T cells per 7.5 μl of loading medium. Low-melt agarose (Molecular Devices Corp.), melted and stored at 37° C., was added to the suspended cells to a concentration of 2.5 μl per 7.5 μl. Ten μl of the agarose/cell mixture was immediately spotted into the center of the cell capsule cups (Molecular Devices Corp.) held in a 12 well culture plate. After 5 minutes, 2 ml of loading medium was placed in the capsule cup over the solidified agarose and a membrane insert was placed over the cells. The assembled cell capsule was loaded in the Cytosensor chamber at 37° C. and perfused at 50 μl per min with low-buffering RPMI 1640 medium containing […] but no added HEPES or bicarbonate. […]

HLA-DR2 = biological target: T1, HLA-DR2 (Homo sapiens, UniProt P01903+Q30154); assay: Peptide/DR2 competitive binding assay (biotinylated MBP 83-102Y83 vs test peptide, ELISA)
T1 construct: DR2 molecules were purified from the human EBV-B cell line; endogenous in cells; host or cells: human EBV-B cell line
Procedure: DR2 molecules were purified from the human EBV-B cell line. […] Mab L243 (IgG2a) affinity chromatography. A 10 μM solution of affinity purified DR2 was biotinylated with 200 μM Biotin-XX-NHS in 0.25 NaHCO3/0.2% NP-40 for 1 hr. at room temperature.
The ability of peptides to bind HLA-DR2 was estimated by competitive peptide binding assay. Purified HLA-DR2 (2 μg/ml) was incubated with 50-fold excess Bt-MBP 83-102Y83 peptide in the presence or absence of test peptides. The ratio of Et-MEP 831-2Y83 peptide to the test peptide was 1:1. After incubation at 37° C. for 48 hrs, the complex was added to the wells coated with anti-DR antibody and incubated for 2 hours at 37° C. The wells were then washed and alkaline phosphatase-linked streptavidin was added and the reaction incubated for 1 hour at 37° C. The excess streptavidin was washed and the ELISA color was developed by using p-nitrophenol phosphate in 0.1M diethanolamine as substrate. The test peptide was considered to be the stronger binding peptide if the O.D was less than the O.D of Bt 83-102Y83 peptide in the absence of the test peptide.

Substance | γ-IFN production by SS8T cells exposed to peptide [1] | stimulation of SS8T cells (extracellular acidification rate) (SS8T cells; SS8T cells immobilized in agarose, exposed to peptide, FIG. 3) | inhibition of the binding of biotinylated MBP 83-102 to DR2 (HLA-DR2; purified DR2, 50-fold molar excess biotinylated MBP 83-102Y83, increasing concentrations of test peptide, FIG. 1) | affinity of binding to DR2 relative to MBP peptide (HLA-DR2; synthesized peptide, compared with MBP 84-102 peptide) | activation of the MBP 83-102 specific T cells in the presence of increasing concentrations of test peptide (SS8T cells; competition with MBP peptide, increasing concentrations)
Ac-GFGYGGRASDYKSAHKGFKG (Ac-GFGYGGRASDYKSAHKGFKG-NH2) [MBP 124-143 peptide, myelin basic protein peptide 124-143, control] | did not show any increase in γ-IFN production | – | – | – | –
Ac-YDENPVVHEKMVTPRTPP (Ac-YDENPVVHEKMVTPRTPP-NH2) [MBP 83-102 peptide, myelin basic protein peptide 83-102 with Y at position 83] | specific increase in γ-IFN production | increased level of extracellular acidification rate within 10 minutes | – | – | –
GHIKSSISFMGM [peptide #1] | – | – | to the same extent as the unbiotinylated MBP 83-102 peptide | comparatively in the same range as that of the MBP 83-102 peptide | decreasing activation of the hybridomas in a competitive manner
